According to patent US20230389548A1, “MIXTURES OF PYRIMIDINES AS HERBICIDAL COMPOSITIONS” (SYNGENTA CROP PROTECTION AG, priority 2020, published 2023):

What was measured:
Test in all cases: Post-emergence glasshouse spray test, visual percentage phytotoxicity after 13 days
Format in all cases: in vivo
[1] = test system: Lolium perenne (LOLPE); settings: for LOLPE percentage phytotoxicity: B1
Method in brief: (§1)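 Plants grown 8 days in sterilised soil (24/19 °C, 16 h light) were sprayed at 500 l/Ha with compound formulated in acetone/IF50 emulsifier-solvent as a 50 g/l solution, diluted in 0.2% Genapol XO80 to final dose. Phytotoxicity was scored visually versus untreated controls after 13 days (24/18 °C, 15 h light, 50% humidity).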

[2] = test system: Ipomoea hederacea (IPOHE); settings: for IPOHE percentage phytotoxicity: B1
Method in brief: as §1

[3] = test system: Abutilon threophrasti (ABUTH); settings: for ABUTH percentage phytotoxicity: B1
Method in brief: as §1

[4] = test system: Digitaria sanguinalis (DIGSA); settings: for DIGSA percentage phytotoxicity: B1
Method in brief: as §1

[5] = test system: Setaria faberi (SETFA); settings: for SETFA percentage phytotoxicity: B1
Method in brief: as §1

[6] = test system: Chenopodium album (CHEAL); settings: for CHEAL percentage phytotoxicity: B1
Method in brief: as §1

[7] = test system: Alopecurus myosuroides (ALOMY); settings: for ALOMY percentage phytotoxicity: B1
Method in brief: as §1

[8] = test system: Stellaria media (STEME); settings: for STEME percentage phytotoxicity: B1
Method in brief: as §1

[9] = test system: Amaranthus retroflexus (AMARE); settings: for AMARE percentage phytotoxicity: B1
Method in brief: as §1

[10] = test system: Echinochloa crus-galli (ECHCG)
Method in brief: as §1

FC(F)c1cc(-c2c(Cl)cccc2Oc2ncc(Cl)cn2)on1 [A-I] was tested, and the LOLPE percentage phytotoxicity ([1]; 0.625 g/ha post-emergence) was 4%, the LOLPE percentage phytotoxicity ([1]; 1.25 g/ha post-emergence) was 5% and the LOLPE percentage phytotoxicity ([1]; 2.5 g/ha post-emergence) was 8%. The LOLPE percentage phytotoxicity ([1]; 5 g/ha post-emergence) was 43%, the LOLPE percentage phytotoxicity ([1]; 10 g/ha post-emergence) was 30% and the “Observed phytotoxicity LOLPE” value ([1]; B2.1.1, 0.625 g/ha post-emergence) was 0%. For the same molecule, the “Observed phytotoxicity LOLPE” value ([1]; B2.1.1, 1.25 g/ha post-emergence) was 0%, the “Observed phytotoxicity LOLPE” value ([1]; B2.2.4, 1.25 g/ha post-emergence) was 0% and the “Observed phytotoxicity LOLPE” value ([1]; B2.2.4, 2.5 g/ha post-emergence) was 0%. For the same molecule, the “Observed phytotoxicity LOLPE” value ([1]; B2.2.4, 5 g/ha post-emergence) was 14%, the “Observed phytotoxicity LOLPE” value ([1]; B2.3.4, 1.25 g/ha post-emergence) was 0% and the “Observed phytotoxicity LOLPE” value ([1]; B2.3.4, 2.5 g/ha post-emergence) was 0%. For the same molecule, the “Observed phytotoxicity LOLPE” value ([1]; B2.4.3, 10 g/ha post-emergence) was 30%, the “Observed phytotoxicity LOLPE” value ([1]; B2.5.2, 5 g/ha post-emergence) was 21% and the “Observed phytotoxicity LOLPE” value ([1]; B2.5.2, 10 g/ha post-emergence) was 30%. For the same molecule, the “Observed phytotoxicity LOLPE” value ([1]; B2.6.3, 10 g/ha post-emergence) was 30%, the IPOHE percentage phytotoxicity ([2]; 0.625 g/ha post-emergence) was 32% and the IPOHE percentage phytotoxicity ([2]; 1.25 g/ha post-emergence) was 50%. It also gave an IPOHE percentage phytotoxicity ([2]; 2.5 g/ha post-emergence) of 80%, an IPOHE percentage phytotoxicity ([2]; 5 g/ha post-emergence) of 79% and an IPOHE percentage phytotoxicity ([2]; 10 g/ha post-emergence) of 60%. For the same molecule, the “Observed phytotoxicity IPOHE” value ([2]; B2.3.6, 0.625 g/ha post-emergence) was 24%, the “Observed phytotoxicity IPOHE” value ([2]; B2.4.5, 10 g/ha post-emergence) was 60% and the “Observed phytotoxicity IPOHE” value ([2]; B2.6.4, 10 g/ha post-emergence) was 60%. For the same molecule, the ABUTH percentage phytotoxicity ([3]; 0.625 g/ha post-emergence) was 15%, the ABUTH percentage phytotoxicity ([3]; 1.25 g/ha post-emergence) was 41% and the ABUTH percentage phytotoxicity ([3]; 2.5 g/ha post-emergence) was 49%. The ABUTH percentage phytotoxicity ([3]; 5 g/ha post-emergence) was 68%, the ABUTH percentage phytotoxicity ([3]; 10 g/ha post-emergence) was 68% and the “Observed phytotoxicity ABUTH” value ([3]; B2.1.7, 1.25 g/ha post-emergence) was 8%. The “Observed phytotoxicity ABUTH” value ([3]; B2.1.7, 2.5 g/ha post-emergence) was 25%, the “Observed phytotoxicity ABUTH” value ([3]; B2.4.6, 0.625 g/ha post-emergence) was 15% and the DIGSA percentage phytotoxicity ([4]; 0.625 g/ha post-emergence) was 6%. The DIGSA percentage phytotoxicity ([4]; 1.25 g/ha post-emergence) was 25%, the DIGSA percentage phytotoxicity ([4]; 2.5 g/ha post-emergence) was 34% and the DIGSA percentage phytotoxicity ([4]; 5 g/ha post-emergence) was 63%. The DIGSA percentage phytotoxicity ([4]; 10 g/ha post-emergence) was 78%, the “Observed phytotoxicity DIGSA” value ([4]; B2.2.3, 5 g/ha post-emergence) was 48% and the “Observed phytotoxicity DIGSA” value ([4]; B2.3.3, 0.625 g/ha post-emergence) was 3%. The “Observed phytotoxicity DIGSA” value ([4]; B2.3.3, 1.25 g/ha post-emergence) was 9%, the “Observed phytotoxicity DIGSA” value ([4]; B2.4.2, 2.5 g/ha post-emergence) was 34% and the “Observed phytotoxicity DIGSA” value ([4]; B2.4.2, 5 g/ha post-emergence) was 63%. For the same molecule, the “Observed phytotoxicity DIGSA” value ([4]; B2.4.2, 10 g/ha post-emergence) was 78%, the “Observed phytotoxicity DIGSA” value ([4]; B2.5.1, 2.5 g/ha post-emergence) was 34% and the “Observed phytotoxicity DIGSA” value ([4]; B2.6.2, 0.625 g/ha post-emergence) was 6%. The “Observed phytotoxicity DIGSA” value ([4]; B2.6.2, 2.5 g/ha post-emergence) was 34%, the “Observed phytotoxicity DIGSA” value ([4]; B2.6.2, 10 g/ha post-emergence) was 78% and the SETFA percentage phytotoxicity ([5]; 0.625 g/ha post-emergence) was 7%. It also gave an SETFA percentage phytotoxicity ([5]; 1.25 g/ha post-emergence) of 13%, an SETFA percentage phytotoxicity ([5]; 2.5 g/ha post-emergence) of 29% and an SETFA percentage phytotoxicity ([5]; 5 g/ha post-emergence) of 53%. For the same molecule, the SETFA percentage phytotoxicity ([5]; 10 g/ha post-emergence) was 65%, the “Observed phytotoxicity SETFA” value ([5]; B2.1.3, 5 g/ha post-emergence) was 40% and the “Observed phytotoxicity SETFA” value ([5]; B2.2.1, 1.25 g/ha post-emergence) was 8%. The “Observed phytotoxicity SETFA” value ([5]; B2.2.1, 2.5 g/ha post-emergence) was 14%, the “Observed phytotoxicity SETFA” value ([5]; B2.2.1, 5 g/ha post-emergence) was 51% and the “Observed phytotoxicity SETFA” value ([5]; B2.3.1, 0.625 g/ha post-emergence) was 3%. The “Observed phytotoxicity SETFA” value ([5]; B2.3.1, 1.25 g/ha post-emergence) was 8%, the “Observed phytotoxicity SETFA” value ([5]; B2.3.1, 2.5 g/ha post-emergence) was 14% and the “Observed phytotoxicity SETFA” value ([5]; B2.4.1, 2.5 g/ha post-emergence) was 29%. The “Observed phytotoxicity SETFA” value ([5]; B2.6.1, 0.625 g/ha post-emergence) was 7%, the “Observed phytotoxicity SETFA” value ([5]; B2.6.1, 2.5 g/ha post-emergence) was 29% and the CHEAL percentage phytotoxicity ([6]; 0.625 g/ha post-emergence) was 48%. The CHEAL percentage phytotoxicity ([6]; 1.25 g/ha post-emergence) was 53%, the CHEAL percentage phytotoxicity ([6]; 2.5 g/ha post-emergence) was 79% and the CHEAL percentage phytotoxicity ([6]; 5 g/ha post-emergence) was 76%. For the same molecule, the CHEAL percentage phytotoxicity ([6]; 10 g/ha post-emergence) was 78%, the “Observed phytotoxicity CHEAL” value ([6]; B2.1.6, 1.25 g/ha post-emergence) was 45% and the “Observed phytotoxicity CHEAL” value ([6]; B2.4.7, 1.25 g/ha post-emergence) was 53%. The ALOMY percentage phytotoxicity ([7]; 0.625 g/ha post-emergence) was 5%, the ALOMY percentage phytotoxicity ([7]; 1.25 g/ha post-emergence) was 11% and the ALOMY percentage phytotoxicity ([7]; 2.5 g/ha post-emergence) was 10%. For the same molecule, the ALOMY percentage phytotoxicity ([7]; 5 g/ha post-emergence) was 43%, the ALOMY percentage phytotoxicity ([7]; 10 g/ha post-emergence) was 41% and the “Observed phytotoxicity ALOMY” value ([7]; B2.2.5, 5 g/ha post-emergence) was 14%. For the same molecule, the “Observed phytotoxicity ALOMY” value ([7]; B2.3.5, 1.25 g/ha post-emergence) was 1%, the “Observed phytotoxicity ALOMY” value ([7]; B2.4.4, 10 g/ha post-emergence) was 41% and the STEME percentage phytotoxicity ([8]; 0.625 g/ha post-emergence) was 44%. For the same molecule, the STEME percentage phytotoxicity ([8]; 1.25 g/ha post-emergence) was 60%, the STEME percentage phytotoxicity ([8]; 2.5 g/ha post-emergence) was 88% and the STEME percentage phytotoxicity ([8]; 5 g/ha post-emergence) was 99%. The STEME percentage phytotoxicity ([8]; 10 g/ha post-emergence) was 98%, the “Observed phytotoxicity STEME” value ([8]; B2.1.4, 1.25 g/ha post-emergence) was 40% and the “Observed phytotoxicity STEME” value ([8]; B2.3.7, 0.625 g/ha post-emergence) was 29%. For the same molecule, the “Observed phytotoxicity STEME” value ([8]; B2.6.5, 0.625 g/ha post-emergence) was 44%, the AMARE percentage phytotoxicity ([9]; 0.625 g/ha post-emergence) was 60% and the AMARE percentage phytotoxicity ([9]; 1.25 g/ha post-emergence) was 70%. For the same molecule, the AMARE percentage phytotoxicity ([9]; 2.5 g/ha post-emergence) was 98%, the AMARE percentage phytotoxicity ([9]; 5 g/ha post-emergence) was 98% and the AMARE percentage phytotoxicity ([9]; 10 g/ha post-emergence) was 100%. For the same molecule, the “Observed phytotoxicity AMARE” value ([9]; B2.1.5, 1.25 g/ha post-emergence) was 55%, the “Observed phytotoxicity AMARE” value ([9]; B2.2.6, 0.625 g/ha post-emergence) was 51% and the “Observed phytotoxicity AMARE” value ([9]; B2.2.6, 1.25 g/ha post-emergence) was 76%. The “Observed phytotoxicity AMARE” value ([9]; B2.4.8, 1.25 g/ha post-emergence) was 70%, the “Observed phytotoxicity ECHCG” value ([10]; B2.1.2, 0.625 g/ha post-emergence) was 8% and the “Observed phytotoxicity ECHCG” value ([10]; B2.1.2, 5 g/ha post-emergence) was 20%. The “Observed phytotoxicity ECHCG” value ([10]; B2.2.2, 0.625 g/ha post-emergence) was 0%, the “Observed phytotoxicity ECHCG” value ([10]; B2.2.2, 1.25 g/ha post-emergence) was 34% and the “Observed phytotoxicity ECHCG” value ([10]; B2.2.2, 5 g/ha post-emergence) was 10%. The “Observed phytotoxicity ECHCG” value ([10]; B2.3.2, 0.625 g/ha post-emergence) was 0%, the “Observed phytotoxicity ECHCG” value ([10]; B2.3.2, 1.25 g/ha post-emergence) was 4% and the “Observed phytotoxicity ECHCG” value ([10]; B2.3.2, 5 g/ha post-emergence) was 10%.
